# Values joined by “and” are separate entries in the source; they are usually repeats but may differ in a detail not shown here. Identical values can stand only once. Inconclusive results and toxic doses are left out.
# Test system: P388 leukemia ip, CD2F1 mice, survival T/C
# Test: NCI In Vivo Anticancer Drug Screen. Data for tumor model P388 Leukemia (intraperitoneal) in CD2F1 (CDF1) mice
# Conditions: endpoint: median survival time, higher = longer survival
# Procedure, shortened: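 Mice carrying the transplanted tumor received test compound or vehicle. Survival was recorded in each group, and the value is the treated-group measurement divided by that of the vehicle-treated control group.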
# [1] = dose: 50.0 mg/kg/injection, schedule: Q01DX009 (ip), vehicle: saline with Tween-80
# [2] = dose: 100.0 mg/kg/injection, schedule: Q01DX009 (ip), vehicle: saline with Tween-80
# [3] = dose: 200.0 mg/kg/injection, schedule: Q01DX009 (ip), vehicle: saline with Tween-80
# [4] = dose: 50.0 mg/kg/injection, schedule: Q01DX005 (ip), vehicle: Klucel (hydroxypropylcellulose) (HPC)
# [5] = dose: 100.0 mg/kg/injection, schedule: Q01DX005 (ip), vehicle: Klucel (hydroxypropylcellulose) (HPC)
# [6] = dose: 200.0 mg/kg/injection, schedule: Q01DX005 (ip), vehicle: Klucel (hydroxypropylcellulose) (HPC)
# [7] = dose: 50.0 mg/kg/injection, schedule: Q01DX005 (ip), vehicle: saline with Tween-80
# [8] = dose: 100.0 mg/kg/injection, schedule: Q01DX005 (ip), vehicle: saline with Tween-80
# [9] = dose: 200.0 mg/kg/injection, schedule: Q01DX005 (ip), vehicle: saline with Tween-80
# [10] = dose: 60.0 mg/kg/injection, schedule: Q01DX005 (ip), vehicle: saline with Tween-80
# [11] = dose: 400.0 mg/kg/injection, schedule: Q01DX009 (ip), vehicle: saline with Tween-80
# [12] = dose: 120.0 mg/kg/injection, schedule: Q01DX005 (ip), vehicle: saline with Tween-80
smiles,measurement,setting,value
CCCCOC(=O)CC(O)C(=O)OCCCC (stereo not given),T/C,[1],109 % of control
same,T/C,[2],119 % of control
same,T/C,[3],114 % of control
CC(C)(C)OC(=O)NC(Cc1c[nH]c2ccccc12)C(=O)O (stereo not given),T/C,[4],102 % of control
same,T/C,[5],101 % of control
same,T/C,[6],101 % of control
COc1ccc2c(c1)[nH]c1c(C)c3ccncc3c(C)c12,T/C,"dose: 18.75 mg/kg/injection, schedule: Q04DX002 (ip), vehicle: Klucel (hydroxypropylcellulose) (HPC)",95 % of control
same,T/C,"dose: 37.5 mg/kg/injection, schedule: Q04DX002 (ip), vehicle: Klucel (hydroxypropylcellulose) (HPC)",92 % of control
same,T/C,"dose: 75.0 mg/kg/injection, schedule: Q04DX002 (ip), vehicle: Klucel (hydroxypropylcellulose) (HPC)",90 % of control
same,T/C,"dose: 150.0 mg/kg/injection, schedule: Q04DX002 (ip), vehicle: Klucel (hydroxypropylcellulose) (HPC)",100 % of control
Cc1ccc(N)c(C(=O)Nc2ccc(Br)cc2)c1,T/C,[7],101 % of control
same,T/C,[8],101 % of control
same,T/C,[9],95 % of control
CCOC(=O)Nc1cc(NC/C(=N/O)c2ccc(C(F)(F)F)cc2)c([N+](=O)[O-])c(N)n1,T/C,"dose: 50.0 mg/kg/injection, schedule: Q01DX001 (ip), vehicle: saline with Tween-80",94 % of control
same,T/C,"dose: 100.0 mg/kg/injection, schedule: Q01DX001 (ip), vehicle: saline with Tween-80",96 % of control
CC(=O)OC1=C(C)C2=C3OC(=O)C(C)=C3CC[C@@]2(C)[C@@H](Cl)[C@@H]1Cl,T/C,"dose: 25.0 mg/kg/injection, schedule: Q01DX005 (ip), vehicle: Klucel (hydroxypropylcellulose) (HPC)",104 % of control and 113 % of control
same,T/C,[4],104 % of control and 108 % of control and 111 % of control
same,T/C,[5],114 % of control and 117 % of control and 121 % of control
same,T/C,[6],108 % of control and 119 % of control and 120 % of control
O=C(Nc1ccc(C(=O)O)cc1)Nc1nccs1,T/C,"dose: 12.5 mg/kg/injection, schedule: Q01DX009 (ip), vehicle: distilled water + Tween-80",89 % of control
same,T/C,"dose: 25.0 mg/kg/injection, schedule: Q01DX009 (ip), vehicle: distilled water + Tween-80",118 % of control
same,T/C,"dose: 50.0 mg/kg/injection, schedule: Q01DX009 (ip), vehicle: distilled water + Tween-80",122 % of control
same,T/C,"dose: 100.0 mg/kg/injection, schedule: Q01DX009 (ip), vehicle: distilled water + Tween-80",150 % of control
same,T/C,"dose: 200.0 mg/kg/injection, schedule: Q01DX009 (ip), vehicle: distilled water + Tween-80",163 % of control
Cc1ccc(S(=O)(=O)N/N=C/c2ccc(N(C)C)cc2)cc1,T/C,"dose: 12.5 mg/kg/injection, schedule: Q01DX009 (ip), vehicle: other",113 % of control
same,T/C,"dose: 25.0 mg/kg/injection, schedule: Q01DX009 (ip), vehicle: other",96 % of control
same,T/C,"dose: 50.0 mg/kg/injection, schedule: Q01DX009 (ip), vehicle: other",109 % of control
same,T/C,"dose: 100.0 mg/kg/injection, schedule: Q01DX009 (ip), vehicle: other",100 % of control
same,T/C,"dose: 200.0 mg/kg/injection, schedule: Q01DX009 (ip), vehicle: other",106 % of control
same,T/C,"dose: 400.0 mg/kg/injection, schedule: Q01DX009 (ip), vehicle: other",100 % of control
NC(=O)c1cc([N+](=O)[O-])cc([N+](=O)[O-])c1Cl,T/C,"dose: 6.25 mg/kg/injection, schedule: Q01DX009 (ip), vehicle: Klucel (hydroxypropylcellulose) (HPC)",102 % of control
CCCCc1ccc(C(N)=O)nc1,T/C,[4],104 % of control
same,T/C,[5],99 % of control
COc1c(C)cc(Cc2ccc3c(c2)OCO3)cc1C,T/C,[4],109 % of control
same,T/C,[5],109 % of control
same,T/C,[6],113 % of control
c1ccc2c(NCCCCCCCCCCCCNc3c4ccccc4nc4ccccc34)c3ccccc3nc2c1,T/C,"dose: 1.25 mg/kg/injection, schedule: Q## X009 (ip), vehicle: lactic acid",100 % of control and 96 % of control
same,T/C,"dose: 2.5 mg/kg/injection, schedule: Q## X009 (ip), vehicle: lactic acid",99 % of control and 92 % of control
same,T/C,"dose: 5.0 mg/kg/injection, schedule: Q## X009 (ip), vehicle: lactic acid",107 % of control and 110 % of control
COC1=CC(C)(C)C(=O)S1,T/C,"dose: 25.0 mg/kg/injection, schedule: Q04DX002 (ip), vehicle: saline with Tween-80",100 % of control
same,T/C,"dose: 50.0 mg/kg/injection, schedule: Q04DX002 (ip), vehicle: saline with Tween-80",96 % of control
same,T/C,"dose: 100.0 mg/kg/injection, schedule: Q04DX002 (ip), vehicle: saline with Tween-80",100 % of control
CC(=O)OCC1OC(Oc2ccc(C=C(C(C)=O)C(C)=O)cc2)C(OC(C)=O)C(OC(C)=O)C1OC(C)=O (stereo not given),T/C,[7],105 % of control
same,T/C,[8],101 % of control
same,T/C,[9],104 % of control
Cc1ccc[c]([Hg][Cl])c1N=Nc1ccccc1,T/C,"dose: 9.5 mg/kg/injection, schedule: Q01DX009 (ip), vehicle: saline with Tween-80",118 % of control
same,T/C,"dose: 19.0 mg/kg/injection, schedule: Q01DX009 (ip), vehicle: saline with Tween-80",110 % of control
CC(CN(C)C)C(=O)/C=C/c1c(Cl)cccc1Cl (stereo not given),T/C,[10],111 % of control
Cc1ccc(Cl)c(S(=O)(=O)F)c1,T/C,[3],104 % of control
same,T/C,[11],100 % of control
O=C(Nc1ccc(C(=O)O)cc1)Nc1cc(C(F)(F)F)ccc1Cl,T/C,[10],105 % of control
same,T/C,[12],105 % of control
same,T/C,"dose: 240.0 mg/kg/injection, schedule: Q01DX005 (ip), vehicle: saline with Tween-80",105 % of control
[N-]=[N+]=Nc1c2c(nc3ccccc13)CCCC2,T/C,[10],103 % of control
same,T/C,[12],105 % of control
NC(=O)C1=C(N)CCC1,T/C,[2],90 % of control
same,T/C,[3],90 % of control
same,T/C,[11],100 % of control
CC(C)C1OC2(CCCC2)OCC1(C)C (stereo not given),T/C,"dose: 100.0 mg/kg/injection, schedule: Q04DX003 (ip), vehicle: Klucel (hydroxypropylcellulose) (HPC)",103 % of control
same,T/C,"dose: 200.0 mg/kg/injection, schedule: Q04DX003 (ip), vehicle: Klucel (hydroxypropylcellulose) (HPC)",103 % of control
same,T/C,"dose: 400.0 mg/kg/injection, schedule: Q04DX003 (ip), vehicle: Klucel (hydroxypropylcellulose) (HPC)",100 % of control
C[C@@]12N[C@H]3S[C@]1(C)c1ccccc1N2C[C@@H]3C#N,T/C,"dose: 25.0 mg/kg/injection, schedule: Q01DX005 (ip), vehicle: saline with Tween-80",99 % of control
same,T/C,[7],86 % of control and 94 % of control
same,T/C,[8],96 % of control
C/C=C1\C[C@@H]2C(OC)Nc3cc(O)c(OC)cc3C(=O)N2C1 (stereo not given in full),T/C,"dose: 0.01 mg/kg/injection, schedule: Q04DX003 (ip), vehicle: other",97 % of control
same,T/C,"dose: 0.03 mg/kg/injection, schedule: Q04DX003 (ip), vehicle: other",114 % of control
same,T/C,"dose: 0.1 mg/kg/injection, schedule: Q04DX003 (ip), vehicle: other",123 % of control
same,T/C,"dose: 0.13 mg/kg/injection, schedule: Q04DX003 (ip), vehicle: other",160 % of control
same,T/C,"dose: 0.25 mg/kg/injection, schedule: Q04DX003 (ip), vehicle: other",163 % of control
same,T/C,"dose: 0.3 mg/kg/injection, schedule: Q04DX003 (ip), vehicle: other",161 % of control
same,T/C,"dose: 0.5 mg/kg/injection, schedule: Q04DX003 (ip), vehicle: other",168 % of control
same,T/C,"dose: 1.0 mg/kg/injection, schedule: Q04DX003 (ip), vehicle: other",93 % of control
same,T/C,"dose: 1.0 micrograms/kg/injection, schedule: Q01DX009 (ip), vehicle: other",110 % of control
same,T/C,"dose: 3.0 micrograms/kg/injection, schedule: Q01DX009 (ip), vehicle: other",102 % of control
same,T/C,"dose: 10.0 micrograms/kg/injection, schedule: Q01DX009 (ip), vehicle: other",118 % of control
same,T/C,"dose: 100.0 micrograms/kg/injection, schedule: Q01DX009 (ip), vehicle: other",168 % of control
same,T/C,"dose: 300.0 micrograms/kg/injection, schedule: Q01DX009 (ip), vehicle: other",200 % of control
CCCCCCC(O)CCC(O)CCCCCCCC(=O)O (stereo not given),T/C,[1],103 % of control
same,T/C,[2],92 % of control
same,T/C,[3],100 % of control
CCCCN(CCCC)CCCN(CCCOS(C)(=O)=O)CCCOS(C)(=O)=O,T/C,"dose: 20.0 mg/kg/injection, schedule: Q01DX009 (ip), vehicle: saline",181 % of control and 185 % of control
same,T/C,"dose: 40.0 mg/kg/injection, schedule: Q01DX009 (ip), vehicle: saline",231 % of control and 236 % of control
Cc1ccc(-c2nc(N)sc2N=Nc2ccc(Cl)cc2Cl)cc1,T/C,"dose: 60.0 mg/kg/injection, schedule: Q01DX005 (ip), vehicle: Klucel (hydroxypropylcellulose) (HPC)",96 % of control
same,T/C,"dose: 120.0 mg/kg/injection, schedule: Q01DX005 (ip), vehicle: Klucel (hydroxypropylcellulose) (HPC)",96 % of control
same,T/C,"dose: 240.0 mg/kg/injection, schedule: Q01DX005 (ip), vehicle: Klucel (hydroxypropylcellulose) (HPC)",97 % of control
